From patent publication US20040176431A1, “Antiproliferative 2-(sulfo-phenyl)-aminothiazole derivatives and pharmaceutical compositions, and methods for their use” (Pfizer, Inc., priority 2003, published 2004)

Target: T1, CDK4/cyclin D3 (Homo sapiens, UniProt P11802)
T1 construct: made in house; host or cells: insect cells (baculovirus co-infection)
Experiment: Inhibition of CDK4/Cyclin D retinoblastoma kinase activity;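 on % Inhib CDK4/D @ 1 μM: relative to DMSO control wells without compound minus no-enzyme background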
Assay type: biochemical
Conditions: for inhibition at 0.1 µM / % Inhib CDK4/D @ 0.1 μM: test compound at 0.1 μM; for inhibition at 0.1 µM: read-out: % Inhib CDK4/D @ 0.1 μM; for % Inhib CDK4/D @ 1 μM / inhibition at 1 µM: test compound at 1 μM (head line shifted: 'mM' printed beside 'Structure'); for % Inhib CDK4/D @ 0.03 / inhibition at 0.03 µM: test compound at 0.03 (unit cell empty, head line shifted; μM); for inhibition at 0.03 µM: read-out: % Inhib CDK4/D @ 0.03; for inhibition at 1 µM: read-out: % Inhib CDK4/D @ 1 μM
How it was run: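 Apparent Ki derived by fitting activity at varied inhibitor concentrations to competitive (or competitive tight-binding) inhibition equations, background without enzyme subtracted. Radiometric filter-binding read-out of Rb(386-928) phosphorylation by 5 nM CDK4/cyclin D3(1-264); 25 μM ATP, pH 7.4, 2% DMSO, 30° C., 20 min, extended to 60 min for tight binders.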

T1 sequence (P11802 whole entry): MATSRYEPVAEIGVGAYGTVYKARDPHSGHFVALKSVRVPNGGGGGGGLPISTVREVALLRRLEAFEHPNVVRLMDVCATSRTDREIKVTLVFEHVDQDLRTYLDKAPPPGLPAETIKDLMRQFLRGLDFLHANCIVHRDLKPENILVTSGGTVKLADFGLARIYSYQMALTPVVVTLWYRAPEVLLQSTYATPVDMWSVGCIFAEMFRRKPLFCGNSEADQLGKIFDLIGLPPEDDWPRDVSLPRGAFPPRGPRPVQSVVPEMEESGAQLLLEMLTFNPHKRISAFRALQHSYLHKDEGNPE
T1 sequence (P30281 1-264 partner limits assumed): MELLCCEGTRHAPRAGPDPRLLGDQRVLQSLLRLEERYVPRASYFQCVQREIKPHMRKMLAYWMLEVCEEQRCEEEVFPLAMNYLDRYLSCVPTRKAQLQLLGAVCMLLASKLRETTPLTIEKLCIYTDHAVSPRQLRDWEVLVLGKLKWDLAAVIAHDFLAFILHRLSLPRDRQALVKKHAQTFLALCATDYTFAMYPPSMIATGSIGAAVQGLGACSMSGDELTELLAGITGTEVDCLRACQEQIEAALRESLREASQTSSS

Structure (SMILES) | inhibition at 0.1 µM [%] | % Inhib CDK4/D @ 1 μM [%] | % Inhib CDK4/D @ 0.03 [%] | inhibition at 0.03 µM [%] | % Inhib CDK4/D @ 0.1 μM (0.1 µM) [%] | inhibition at 1 µM [%] | % Inhib CDK4/D @ 0.1 μM [%]
COCCS(=O)(=O)c1ccc(Nc2nc(N)c(C(=O)c3c(Cl)cccc3Cl)s2)cc1 [DD(174)] | 24 | 24.6 | −16 |  |  |  | 
Nc1nc(Nc2ccc(S(=O)(=O)CC(=O)Nc3ccccc3)cc2)sc1C(=O)c1c(Cl)cccc1Cl [DD(175)] | 23 | 12.4 | −14 |  |  |  | 
Nc1nc(Nc2ccc(S(=O)(=O)CC3CC3)cc2)sc1C(=O)c1c(Cl)cccc1Cl [DD(176)] | 13 | 5.4 |  | 17 |  |  | 
COc1cccc(CS(=O)(=O)c2ccc(Nc3nc(N)c(C(=O)c4c(Cl)cccc4Cl)s3)cc2)c1 [DD(177)] |  | 3.2 | −29 |  | 15 |  | 
Nc1nc(Nc2ccc(S(=O)(=O)CC3CCCO3)cc2)sc1C(=O)c1c(Cl)cccc1Cl (stereo not drawn) [DD(178)] |  |  | −27 |  | 16 | 16.6 | 
CN1CCCC1CCS(=O)(=O)c1ccc(Nc2nc(N)c(C(=O)c3c(Cl)cccc3Cl)s2)cc1 (stereo not drawn) [DD(179)] | 24 | 9.4 | −1.1 |  |  |  | 
CC1(CS(=O)(=O)c2ccc(Nc3nc(N)c(C(=O)c4c(Cl)cccc4Cl)s3)cc2)CO1 (stereo not drawn) [DD(180)] |  | 4.2 | −14 |  | 13 |  | 
NC(=O)CS(=O)(=O)c1ccc(Nc2nc(N)c(C(=O)c3c(Cl)cccc3Cl)s2)cc1 [DD(181)] | 28 |  | −10 |  |  | 27.5 | 
CCOC(=O)CCS(=O)(=O)c1ccc(Nc2nc(N)c(C(=O)c3c(Cl)cccc3Cl)s2)cc1 [DD(182))] |  | 5.4 | −12 |  | 17 |  | 
CC(C)OC(=O)CS(=O)(=O)c1ccc(Nc2nc(N)c(C(=O)c3c(Cl)cccc3Cl)s2)cc1 [DD(183)] |  | 1.9 | 8.6 |  | 17 |  | 
CC(C)=CCS(=O)(=O)c1ccc(Nc2nc(N)c(C(=O)c3c(Cl)cccc3Cl)s2)cc1 [DD(184)] | 9 | −3.3 | 1.6 |  |  |  | 
CCCS(=O)(=O)c1ccc(Nc2nc(N)c(C(=O)c3c(Cl)cccc3Cl)s2)cc1 [DD(185)] | 33 | 22.3 | 8.5 |  |  |  | 
COC(=O)CS(=O)(=O)c1ccc(Nc2nc(N)c(C(=O)c3c(Cl)cccc3Cl)s2)cc1 [DD(186)] | 26 | 38.9 | 7 |  |  |  | 
CN1CCCC(CS(=O)(=O)c2ccc(Nc3nc(N)c(C(=O)c4c(Cl)cccc4Cl)s3)cc2)C1 (stereo not drawn) [DD(187)] | 24 | −6.4 | 6 |  |  |  | 
NC(=O)CCS(=O)(=O)c1ccc(Nc2nc(N)c(C(=O)c3c(Cl)cccc3Cl)s2)cc1 [DD(188)] | 35 |  | −11 |  |  | 25.9 | 
Nc1nc(Nc2ccc(S(=O)(=O)CCO)cc2)sc1C(=O)c1c(Cl)cccc1Cl [DD(189)] | 31 | 32.2 | −19 |  |  |  | 
CC(C)CCCS(=O)(=O)c1ccc(Nc2nc(N)c(C(=O)c3c(Cl)cccc3Cl)s2)cc1 [DD(190)] | 25 | 33.4 | −21 |  |  |  | 
CC(C)CCOC(=O)CS(=O)(=O)c1ccc(Nc2nc(N)c(C(=O)c3c(Cl)cccc3Cl)s2)cc1 [DD(191)] |  | 9.3 | −24 |  | 31 |  | 
CC(C)CCOC(=O)CS(=O)(=O)c1ccc(Nc2nc(N)c(C(=O)c3c(Cl)cccc3Cl)s2)cc1 [DD(192)] |  | −29 | 5.6 |  | 11 |  | 

Structure (SMILES) | inhibition at 0.1 µM [%] | % Inhib CDK4/D @ 1 μM [%] | % Inhib CDK4/D @ 0.03 [%] | inhibition at 0.03 µM [%] | % Inhib CDK4/D @ 0.1 μM (0.1 µM) [%] | inhibition at 1 µM [%] | % Inhib CDK4/D @ 0.1 μM [%]
CC(C)CCOC(=O)CS(=O)(=O)c1ccc(Nc2nc(N)c(C(=O)c3c(Cl)cccc3Cl)s2)cc1 [DD(193)] |  | 61.1 | −2.9 |  | 31 |  | 
CC(C)CCOC(=O)CS(=O)(=O)c1ccc(Nc2nc(N)c(C(=O)c3c(Cl)cccc3Cl)s2)cc1 [DD(194)] |  | 6.3 | −29 |  | 32 |  | 
Nc1nc(Nc2ccc(S(=O)(=O)Cc3ccccc3)cc2)sc1C(=O)c1c(Cl)cccc1Cl [DD(195)] | 25 |  |  | 3.8 |  | 22.3 | 
CCC(CC)S(=O)(=O)c1ccc(Nc2nc(N)c(C(=O)c3c(Cl)cccc3Cl)s2)cc1 [DD(196)] | 15 |  |  | 1.3 |  | 14.4 | 
CC(=O)OCCS(=O)(=O)c1ccc(Nc2nc(N)c(C(=O)c3c(Cl)cccc3Cl)s2)cc1 [DD(197)] | 37 | 62.3 | 6.5 |  |  |  | 
CC(C)OC(=O)CCS(=O)(=O)c1ccc(Nc2nc(N)c(C(=O)c3c(Cl)cccc3Cl)s2)cc1 [DD(198)] | 9.2 |  |  | -24 |  | 5.1 | 
Nc1nc(Nc2ccc(S(=O)(=O)CCN3CCOCC3)cc2)sc1C(=O)c1c(Cl)cccc1Cl [DD(199)] | 31 | 40.5 | −7.7 |  |  |  | 
CC(C)(CO)CS(=O)(=O)c1ccc(Nc2nc(N)c(C(=O)c3c(Cl)cccc3Cl)s2)cc1 [DD(200)] | 22 | 22.4 | −13 |  |  |  | 
CCN(CC)C(=O)CS(=O)(=O)c1ccc(Nc2nc(N)c(C(=O)c3c(Cl)cccc3Cl)s2)cc1 [DD(201)] |  | 10.3 | 3.5 |  | 36 |  | 
Cc1noc(C)c1CS(=O)(=O)c1ccc(Nc2nc(N)c(C(=O)c3c(Cl)cccc3Cl)s2)cc1 [DD(202)] |  | 45.2 | 17 |  | 29 |  | 
COC(=O)/C=C/CS(=O)(=O)c1ccc(Nc2nc(N)c(C(=O)c3c(Cl)cccc3Cl)s2)cc1 [DD(203)] |  | 33.7 | −5.5 |  | 37 |  | 
COC(=O)/C=C/CS(=O)(=O)c1ccc(Nc2nc(N)c(C(=O)c3c(Cl)cccc3Cl)s2)cc1 [DD(204)] |  | 20.8 | −3.4 |  | 29 |  | 
Nc1nc(Nc2ccc(S(=O)(=O)CCCO)cc2)sc1C(=O)c1c(Cl)cccc1Cl [DD(205)] |  | 56.4 | −4.1 |  | 43 |  | 
C=CCCS(=O)(=O)c1ccc(Nc2nc(N)c(C(=O)c3c(Cl)cccc3Cl)s2)cc1 [DD(206)] |  | 47.3 | −11 |  | 24 |  | 
Nc1nc(Nc2ccc(S(=O)(=O)CCN3CCCC3)cc2)sc1C(=O)c1c(Cl)cccc1Cl [DD(207)] |  | 36.8 | −9.9 |  | 41 |  | 
Nc1nc(Nc2ccc(S(=O)(=O)Cc3ncon3)cc2)sc1C(=O)c1c(Cl)cccc1Cl [DD(208)] |  | 47.8 | 0.2 |  | 36 |  | 
Nc1nc(Nc2ccc(S(=O)(=O)CC3CNC(=O)O3)cc2)sc1C(=O)c1c(Cl)cccc1Cl (stereo not drawn) [DD(209)] |  | −21 | −10 |  | 8 |  | 
CN(C)CCCS(=O)(=O)c1ccc(N(C)c2nc(N)c(C(=O)c3c(Cl)cccc3Cl)s2)cc1 [DD(210)] | 21 |  |  | -22 |  | -37 | 
Nc1nc(Nc2ccc(S(=O)(=O)CCN3CCCCC3)cc2)sc1C(=O)c1c(Cl)cccc1Cl [DD(211)] |  | −0.2 | −11 |  |  |  | 21
